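The compound was tested at five concentrations on cells cultured in 96-well plates, with a 48-hour exposure period. At the GI50, growth is halved. The concentration for full growth arrest is given as TGI.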
Assays:
Assay in all cases: inhibition of tumour cell growth, NCI panel, 48 h
HT29 colon = test system: HT29 colon
NCI/ADR-RES ovarian = test system: NCI/ADR-RES ovarian
IGROV1 ovarian = test system: IGROV1 ovarian
COLO 205 colon = test system: COLO 205 colon
MDA-MB-435 = test system: MDA-MB-435
HCT-116 colon = test system: HCT-116 colon
CAKI-1 renal = test system: CAKI-1 renal
SNB-19 CNS = test system: SNB-19 CNS
LOX IMVI melanoma = test system: LOX IMVI melanoma
T-47D breast = test system: T-47D breast
CCRF-CEM leukemia = test system: CCRF-CEM leukemia
K-562 leukemia = test system: K-562 leukemia
NCI-H226 lung = test system: NCI-H226 lung
U251 CNS = test system: U251 CNS
UO-31 renal = test system: UO-31 renal
HCC-2998 colon = test system: HCC-2998 colon
OVCAR-5 ovarian = test system: OVCAR-5 ovarian
OVCAR-8 ovarian = test system: OVCAR-8 ovarian
M14 melanoma = test system: M14 melanoma
SF-268 CNS = test system: SF-268 CNS
RPMI-8226 leukemia = test system: RPMI-8226 leukemia
SR leukemia = test system: SR leukemia
PC-3 prostate = test system: PC-3 prostate
SF-539 CNS = test system: SF-539 CNS
BT-549 breast = test system: BT-549 breast
NCI-H460 lung = test system: NCI-H460 lung
A498 renal = test system: A498 renal
MALME-3M melanoma = test system: MALME-3M melanoma
UACC-257 melanoma = test system: UACC-257 melanoma
TK-10 renal = test system: TK-10 renal
ACHN renal = test system: ACHN renal
MDA-MB-231 breast = test system: MDA-MB-231 breast
HOP-92 NSCLC = test system: HOP-92 NSCLC
HCT-15 colon = test system: HCT-15 colon
A549 NSCLC = test system: A549 NSCLC
NCI-H23 lung = test system: NCI-H23 lung
SW-620 colon = test system: SW-620 colon
SNB-75 CNS = test system: SNB-75 CNS
DU-145 prostate = test system: DU-145 prostate
SK-MEL-28 melanoma = test system: SK-MEL-28 melanoma
NCI-H522 lung = test system: NCI-H522 lung
MOLT-4 leukemia = test system: MOLT-4 leukemia
MCF7 breast = test system: MCF7 breast
HS 578T breast = test system: HS 578T breast
SF-295 CNS = test system: SF-295 CNS
OVCAR-4 ovarian = test system: OVCAR-4 ovarian
OVCAR-3 ovarian = test system: OVCAR-3 ovarian
HOP-62 NSCLC = test system: HOP-62 NSCLC
UACC-62 melanoma = test system: UACC-62 melanoma
SN12C renal = test system: SN12C renal
RXF 393 renal = test system: RXF 393 renal
SK-MEL-2 melanoma = test system: SK-MEL-2 melanoma
SK-MEL-5 melanoma = test system: SK-MEL-5 melanoma
SK-OV-3 ovarian = test system: SK-OV-3 ovarian
KM12 colon = test system: KM12 colon
HL-60(TB) leukemia = test system: HL-60(TB) leukemia
786-0 renal = test system: 786-0 renal

## O=C1Nc2ccc(Cl)cc2/C1=C\c1c(-c2ccc(Cl)cc2)nc2sc(C3CC3)nn12
HT29 colon
  GI50: 5.61 µM
  TGI: 17.4 µM
NCI/ADR-RES ovarian
  GI50: 2.85 µM
  TGI: 10.2 µM
IGROV1 ovarian
  GI50: 4.12 µM
  TGI: 15.8 µM
COLO 205 colon
  GI50: 5.77 µM
  TGI: 23.9 µM
MDA-MB-435
  GI50: 9.36 µM
  TGI: 28.9 µM
HCT-116 colon
  GI50: 3 µM
  TGI: 11.4 µM
CAKI-1 renal
  GI50: 1.43 µM
  TGI: 11.1 µM
SNB-19 CNS
  GI50: 3.59 µM
  TGI: 16.7 µM
LOX IMVI melanoma
  GI50: 3.15 µM
  TGI: 10.7 µM
T-47D breast
  GI50: 2.41 µM
  TGI: 22 µM
CCRF-CEM leukemia
  GI50: 19.8 µM
  TGI: > 100 µM
K-562 leukemia
  GI50: 7.37 µM
  TGI: 24.7 µM
NCI-H226 lung
  GI50: 1.7 µM
  TGI: 4.68 µM
U251 CNS
  GI50: 3.29 µM
  TGI: 13.1 µM
UO-31 renal
  GI50: 2.63 µM
  TGI: 14.8 µM
HCC-2998 colon
  GI50: 6.94 µM
  TGI: 22.3 µM
OVCAR-5 ovarian
  GI50: 11.7 µM
  TGI: 42.6 µM
OVCAR-8 ovarian
  GI50: 3.12 µM
  TGI: 11.5 µM
M14 melanoma
  GI50: 5.77 µM
  TGI: 21.8 µM
SF-268 CNS
  GI50: 3.21 µM
  TGI: 12.9 µM
RPMI-8226 leukemia
  GI50: 18.1 µM
  TGI: > 100 µM
SR leukemia
  GI50: 12.6 µM
  TGI: 75.8 µM
PC-3 prostate
  GI50: 5 µM
  TGI: 19.6 µM
SF-539 CNS
  GI50: 1.88 µM
  TGI: 3.78 µM
BT-549 breast
  GI50: 2.52 µM
  TGI: 9.27 µM
NCI-H460 lung
  GI50: 3.89 µM
  TGI: 14.1 µM
A498 renal
  GI50: 1.05 µM
  TGI: 6.42 µM
MALME-3M melanoma
  GI50: 2.9 µM
  TGI: 8.79 µM
UACC-257 melanoma
  GI50: 3.36 µM
  TGI: 14.4 µM
TK-10 renal
  GI50: 3.1 µM
  TGI: 7.97 µM
ACHN renal
  GI50: 2.77 µM
  TGI: 12.3 µM
MDA-MB-231 breast
  GI50: 2.67 µM
  TGI: 13 µM
HOP-92 NSCLC
  GI50: 2.01 µM
  TGI: 5.89 µM
HCT-15 colon
  GI50: 4.36 µM
  TGI: 17.6 µM
A549 NSCLC
  GI50: 3.58 µM
  TGI: 13.9 µM
NCI-H23 lung
  GI50: 4.39 µM
  TGI: 17.6 µM
SW-620 colon
  GI50: 7.65 µM
  TGI: 55 µM
SNB-75 CNS
  GI50: 1.38 µM
  TGI: 3.19 µM
DU-145 prostate
  GI50: 5.73 µM
  TGI: 17.6 µM
SK-MEL-28 melanoma
  GI50: 3.49 µM
  TGI: 13.7 µM
NCI-H522 lung
  GI50: 4.5 µM
  TGI: 26.3 µM
MOLT-4 leukemia
  GI50: 44.9 µM
  TGI: > 100 µM
MCF7 breast
  GI50: 4.1 µM
  TGI: 16.6 µM
HS 578T breast
  GI50: 2.31 µM
  TGI: 6.85 µM
SF-295 CNS
  GI50: 2.23 µM
  TGI: 6.89 µM
OVCAR-4 ovarian
  GI50: 1.96 µM
  TGI: 5.16 µM
OVCAR-3 ovarian
  GI50: 4.16 µM
  TGI: 15.2 µM
HOP-62 NSCLC
  GI50: 1.75 µM
  TGI: 4.21 µM
UACC-62 melanoma
  GI50: 3.06 µM
  TGI: 14.5 µM
SN12C renal
  GI50: 3.54 µM
  TGI: 14.2 µM
RXF 393 renal
  GI50: 1.91 µM
  TGI: 5.09 µM
SK-MEL-2 melanoma
  GI50: 4.9 µM
  TGI: 19.8 µM
SK-MEL-5 melanoma
  GI50: 3.2 µM
  TGI: 13 µM
SK-OV-3 ovarian
  GI50: 2.51 µM
  TGI: 6.64 µM
KM12 colon
  GI50: 15.8 µM
  TGI: > 100 µM
HL-60(TB) leukemia
  GI50: 40.8 µM
  TGI: > 100 µM
786-0 renal
  GI50: 4.68 µM
  TGI: 18.8 µM
